A value given as a limit tells only on which side of the number the result lay.

The assay addresses HSP90 (Homo sapiens, UniProt P07900). The assay is described as follows: HSP90 inhibition (HSP90 IC50). Format: biochemical.
For the compound `NC(=O)c1cc(Br)c(C(=O)N[C@H]2C[C@H]3CC[C@@H](C2)N3c2ccc(C(=O)C3CC3)cn2)cc1NC1CCC1` [2-bromo-5-(cyclobutylamino)-N-{8-[5-(cyclopropylcarbonyl)pyridin-2-yl]-8-azabicyclo[3.2.1]oct-3-endo-yl}benzene-1,4-dicarboxamide], the IC50 – broadly, the concentration that inhibits the measured activity by half – was less than 500 nM.

`NC(=O)c1cc(Br)c(C(=O)N[C@H]2C[C@H]3CC[C@@H](C2)N3c2ccc(C(=O)C3CC3)cn2)cc1NC1CCCC1` [2-bromo-5-(cyclopentylamino)-N-{8-[5-(cyclopropylcarbonyl)pyridin-2-yl]-8-azabicyclo[3.2.1]oct-3-endo-yl}benzene-1,4-dicarboxamide] returned an IC50 of less than 500 nM.

With `CC(C)Nc1cc(C(=O)N[C@H]2C[C@H]3CC[C@@H](C2)N3c2ccc(C(=O)C3CC3)cn2)c(Br)cc1C(N)=O` [2-bromo-N-{8-(5-(cyclopropylcarbonyl)pyridin-2-yl]-8-azabicyclo[3.2.1]oct-3-endo-yl}-5-[(1-methylethyl)amino]benzene-1,4-dicarboxamide], the IC50 was less than 500 nM.

On to `CCCNc1cc(C(=O)N[C@H]2C[C@H]3CC[C@@H](C2)N3c2ccc(C(=O)C3CC3)cn2)c(Br)cc1C(N)=O` [2-bromo-N-{8-[5-(cyclopropylcarbonyl)pyridin-2-yl]-8-azabicyclo[3.2.1]oct-3-endo-yl}-5-(propylamino)benzene-1,4-dicarboxamide], for which the IC50 was less than 500 nM.

Compound `CC(C)(C)Nc1cc(C(=O)N[C@H]2C[C@H]3CC[C@@H](C2)N3c2ccc(C(=O)C3CC3)cn2)c(Br)cc1C(N)=O` [2-bromo-N-{8-[5-(cyclopropylcarbonyl)pyridin-2-yl]-8-azabicyclo[3.2.1]oct-3-endo-yl}-5-[(1,1-dimethylethyl)amino]benzene-1,4-dicarboxamide] showed a half-inhibitory concentration (IC50) of less than 500 nM.

Consider `CCC(CC)Nc1cc(C(=O)N[C@H]2C[C@H]3CC[C@@H](C2)N3c2ccc(C(=O)C3CC3)cn2)c(Br)cc1C(N)=O` [2-bromo-N-{8-[5-(cyclopropylcarbonyl)pyridin-2-yl]-8-azabicyclo[3.2.1]oct-3-endo-yl}-5-[(1-ethylpropyl)amino]benzene-1,4-dicarboxamide], for which the IC50 is less than 500 nM.

Compound `CC(C)(C)CNc1cc(C(=O)N[C@H]2C[C@H]3CC[C@@H](C2)N3c2ccc(C(=O)C3CC3)cn2)c(Br)cc1C(N)=O` [2-bromo-N-{8-[5-(cyclopropylcarbonyl)pyridin-2-yl]-8-azabicyclo[3.2.1]oct-3-endo-yl}-5-[(2,2-dimethylpropyl)amino]benzene-1,4-dicarboxamide] came in with an IC50 of less than 500 nM.

Take `CC(C)CNc1cc(C(=O)N[C@H]2C[C@H]3CC[C@@H](C2)N3c2ccc(C(=O)C3CC3)cn2)c(Br)cc1C(N)=O` [2-bromo-N-{8-[5-(cyclopropylcarbonyl)pyridin-2-yl]-8-azabicyclo[3.2.1]oct-3-endo-yl}-5-[(2-methylpropyl)amino]benzene-1,4-dicarboxamide]: the IC50 is less than 500 nM.

`NC(=O)c1cc(Br)c(C(=O)N[C@H]2C[C@H]3CC[C@@H](C2)N3c2ccc(C(=O)C3CC3)cn2)cc1NCCC(F)(F)F` [2-bromo-N-{8-[5-(cyclopropylcarbonyl)pyridin-2-yl]-8-azabicyclo[3.2.1]oct-3-endo-yl}-5-[(3,3,3-trifluoropropyl)amino]benzene-1,4-dicarboxamide] yielded a concentration for half-maximal inhibition (IC50) of less than 500 nM.

Consider `NC(=O)c1cc(Br)c(C(=O)N[C@H]2C[C@H]3CC[C@@H](C2)N3c2ccc(C(=O)C3CC3)cn2)cc1NCC1CC1` [2-bromo-N-{8-[5-(cyclopropylcarbonyl)pyridin-2-yl]-8-azabicyclo[3.2.1]oct-3-endo-yl}-5-[(cyclopropylmethyl)amino]benzene-1,4-dicarboxamide], for which the IC50 was less than 500 nM.

With `CC(C)[C@@H](C)Nc1cc(C(=O)NC2CC3CCC(C2)N3c2ccc(C(=O)C3CC3)cn2)c(Br)cc1C(N)=O` (stereo partly drawn) [2-bromo-N-{8-[5-(cyclopropylcarbonyl)pyridin-2-yl]-8-azabicyclo[3.2.1]oct-3-endo-yl}-5-{[(1R)-1 2-dimethylpropyl]amino}benzene-1,4-dicarboxamide], the IC50 is less than 500 nM.

With `CC[C@@H](C)Nc1cc(C(=O)NC2CC3CCC(C2)N3c2ccc(C(=O)C3CC3)cn2)c(Br)cc1C(N)=O` (stereo partly drawn) [2-bromo-N-{8-[5-(cyclopropylcarbonyl)pyridin-2-yl]-8-azabicyclo[3.2.1]oct-3-endo-yl}-5-{[(1R)-1-methylpropyl]amino}benzene-1,4-dicarboxamide], the 50% inhibitory concentration (IC50) is less than 500 nM.

As to `CC(C)[C@H](C)Nc1cc(C(=O)NC2CC3CCC(C2)N3c2ccc(C(=O)C3CC3)cn2)c(Br)cc1C(N)=O` (stereo partly drawn) [2-bromo-N-{8-[5-(cyclopropylcarbonyl)pyridin-2-yl]-8-azabicyclo[3.2.1]oct-3-endo-yl}-5-{[(1S)-1,2-dimethylpropyl]amino}benzene-1,4-dicarboxamide], the concentration for half-maximal inhibition (IC50) was less than 500 nM.

The compound `CC(Nc1c(C(N)=O)ccc(C(=O)N[C@H]2C[C@H]3CC[C@@H](C2)N3c2ccc(C(=O)C3CC3)cn2)c1Cl)C1CC1` (stereo partly drawn) [2-chloro-N-{8-[5-(cyclopropylcarbonyl)pyridin-2-yl]-8-azabicyclo[3.2.1]oct-3-endo-yl}-3-[(1-cyclopropylethyl)amino]benzene-1,4-dicarboxamide] yielded an IC50 of less than 500 nM.

As for `CCC(CC)Nc1cc(C(=O)N[C@H]2C[C@H]3CC[C@@H](C2)N3c2ccc(C(=O)C3CC3)cn2)c(Cl)cc1C(N)=O` [2-chloro-N-{8-[5-(cyclopropylcarbonyl)pyridin-2-yl]-8-azabicyclo[3.2.1]oct-3-endo-yl}-5-[(1-ethylpropyl)amino]benzene-1,4-dicarboxamide], the IC50 was less than 500 nM.

`COc1c(C(N)=O)ccc(C(=O)NC2CC3CCC(C2)N3c2ccc(C(=O)N[C@@H](C)c3ccc(N4CCN(C)CC4)cc3)cn2)c1C` (stereo partly drawn) [2-methyl-3-(methyloxy)-N-(8-{5-[({(1S)-1-[4-(4-methylpiperazin-1-yl)phenyl]ethyl}amino)carbonyl]pyridin-2-yl}-8-azabicyclo[3.2.1]oct-3-endo-yl)benzene-1,4-dicarboxamide]: the IC50 is less than 500 nM.

The compound `Cc1c(OC(N)=O)cccc1C(=O)N[C@H]1C[C@H]2CC[C@@H](C1)N2c1ccc(C(=O)NCc2ccccc2)cn1` [2-methyl-3-({[8-(5-{[(phenylmethyl)amino]carbonyl}pyridin-2-yl)-8-azabicyclo[3.2.1]oct-3-endo-yl]amino}carbonyl)phenyl carbamate] displayed a half-inhibitory concentration (IC50) of 2000 to 10000 nM.

Compound `Cc1cc(C(N)=O)ccc1C(=O)N[C@H]1C[C@H]2CC[C@@H](C1)N2c1ccc(C(=O)NCc2ccccc2)cn1` [2-methyl-N 1-[8-(5-{[(phenylmethyl)amino]carbonyl}pyridin-2-yl)-8-azabicyclo[3.2.1]oct-3-endo-yl]benzene-1,4-dicarboxamide] gave a 50% inhibitory concentration (IC50) of 500 to 999 nM.

In turn, `Cc1c(C(N)=O)cccc1C(=O)N[C@H]1C[C@H]2CC[C@@H](C1)N2c1ccc(C(=O)NCc2ccccc2)cn1` [2-methyl-N-[8-(5-{[(phenylmethyl)amino]carbonyl}pyridin-2-yl)-8-azabicyclo[3.2.1]oct-3-endo-yl]benzene-1,3-dicarboxamide] yielded a half-maximal inhibitory concentration (IC50) of 2000 to 10000 nM.

On to `CCNc1c(C)c(C(=O)NC2CC3CCC(C2)N3c2ccc(C(=O)N[C@@H](C)c3ccc(N4CCN(C)CC4)cc3)cn2)cc(C)c1C(N)=O` (stereo partly drawn) [3-(ethylamino)-2,5-dimethyl-N1-(8-{5-[({(1S)-1-[4-(4-methylpiperazin-1-yl)phenyl]ethyl}amino)carbonyl]pyridin-2-yl}-8-azabicyclo[3.2.1]oct-3-endo-yl)benzene-1,4-dicarboxamide], for which the half-inhibitory concentration (IC50) was in the range of 2000 to 10000 nM.

`CC[C@@H](C)Nc1c(C(N)=O)cc(C)c(C(=O)NC2CC3CCC(C2)N3c2ccc(C(=O)C3CC3)cn2)c1Cl` (stereo partly drawn) [3-chloro-N4-{8-[5-(cyclopropylcarbonyl)pyridin-2-yl]-8-azabicyclo[3.2.1]oct-3-endo-yl}-5-methyl-2-{[(1R)-1-methylpropyl]amino}benzene-1,4-dicarboxamide] yielded a half-maximal inhibitory concentration (IC50) of less than 500 nM.

Compound `Cc1cc(OC(N)=O)ccc1C(=O)N[C@H]1C[C@H]2CC[C@@H](C1)N2c1ccc(C(=O)NCc2ccccc2)cn1` [3-methyl-4-({[8-(5-{[(phenylmethyl)amino]carbonyl}pyridin-2-yl)-8-azabicyclo[3.2.1]oct-3-endo-yl]amino}carbonyl)phenyl carbamate] showed a half-maximal inhibitory concentration (IC50) of 2000 to 10000 nM.

On to `Cc1cc(C(N)=O)c(NC2CCC2)cc1C(=O)N[C@H]1C[C@H]2CC[C@@H](C1)N2c1ccc(C(=O)C2CC2)cn1` [5-(cyclobutylamino)-N-{8-[5-(cyclopropylcarbonyl)pyridin-2-yl]-8-azabicyclo[3.2.1]oct-3-endo-yl}-2-methylbenzene-1,4-dicarboxamide], for which the IC50 was less than 500 nM.

The compound `Cc1cc(C(N)=O)c(NC2CCCC2)cc1C(=O)N[C@H]1C[C@H]2CC[C@@H](C1)N2c1ccc(C(=O)C2CC2)cn1` [5-(cyclopentylamino)-N-{8-[5-(cyclopropylcarbonyl)pyridin-2-yl]-8-azabicyclo[3.2.1]oct-3-endo-yl}-2-methylbenzene-1,4-dicarboxamide] registered a half-maximal inhibitory concentration (IC50) of less than 500 nM.

In turn, `CCC(CC)Nc1cc(C(=O)N[C@H]2C[C@H]3CC[C@@H](C2)N3c2ccc(C(=O)CCC3CCN(C)CC3)cn2)c(C)cc1C(N)=O` [5-[(1-ethylpropyl)amino]-2-methyl-N-(8-{5-[3-(1-methylpiperidin-4-yl)propanoyl]pyridin-2-yl}-8-azabicyclo[3.2.1]oct-3-endo-yl)benzene-1,4-dicarboxamide] showed an IC50 of less than 500 nM.

The compound `CCC(CC)Nc1cc(C(=O)NC2CC3CCC(C2)N3c2ccc(C(=O)N[C@@H]3CCCN(C(C)C)C3)cn2)c(C)cc1C(N)=O` (stereo partly drawn) [5-[(1-ethylpropyl)amino]-2-methyl-N-{8-[5-({[(3R)-1-(1-methylethyl)piperidin-3-yl]amino}carbonyi)pyridin-2-yl]-8-azabicyclo[3.2.1]oct-3-endo-yl}benzene-1,4-dicarboxamide] had an IC50 of less than 500 nM.

In the case of `CCC(CC)Nc1cc(C(=O)NC2CC3CCC(C2)N3c2ccc(C(=O)N[C@@H]3CCN(C(C)C)C3)cn2)c(C)cc1C(N)=O` (stereo partly drawn) [5-[(1-ethylpropyl)amino]-2-methyl-N-{8-[5-({[(3R)-1-(1-methylethyl)pyrrolidin-3-yl]amino}carbonyl)pyridin-2-yl]-8-azabicyclo[3.2.1]oct-3-endo-yl}benzene-1,4-dicarboxamide], the IC50 was less than 500 nM.

The values are drawn from US8012956B2, “Tropane compounds” (Exelixis, Inc., priority 2007, dated 2011).
